According to US10800774B2, “Heterocyclic inhibitors of ATR kinase” (Board of Regents, The University of Texas System, priority 2017, dated 2020):

Key:
ATR/ATRIP complex = ATR/ATRIP complex (Homo sapiens (Human), UniProt Q13535); assay: ATR/ATRIP enzymatic assay (Caliper-based); type: biochemical; details: FAM-labeled RAD17 peptide, ATP; read-out: ATR/ATRIP Enzyme IC50
Method: Human full-length FLAG-TEV-ATR and His6-ATRIP were co-expressed in HEK293 cells. […] The sample was loaded into a column, and then washed with buffer A three times. Protein was subsequently eluted with 2 ml of buffer B (buffer A+200 μg/ml 3×FLAG peptide).
The ability of new chemical matter to inhibit the ATR catalytic activity in this ATR/ATRIP complex was assessed using a Caliper-based assay. A 2× enzyme solution (i.e., 4 nM enzyme) was prepared using 1× Kinase Reaction Buffer (25 mM HEPES pH 8, 0.0055% Brij-35, 10 mM MnCl2, and 1 mM DTT). […] 10 μL of the 2× enzyme solution was transferred to an assay plate containing 60 nL of test compound (from a 3× serial dilution) in 100% DMSO. Following a 30 minute incubation at 28° C., 10 μL of the 2× peptide solution was then transferred to the same assay plate. The reaction was allowed to incubate at 28° C. for 6 hours. After adding […] of stop buffer (100 mM HEPES pH 7.5, 0.015% Brij-35, 0.2% Coating-3 Reagent (PerkinElmer, catalog # PN760050), and 50 mM EDTA), data were collected on a Caliper instrument. Conversion values were converted to inhibition values via the following equation: % inhibition=(max−conversion)/(max−min)*100, whereby “max” corresponds to the DMSO control and “min” corresponds to the low control. IC50 values were calculated using the following equation in XLFit: Y=Bottom+(Top−Bottom)/1+(IC50/X)^HillSlope).

[1] = tested on: ATR-driven phosphorylation of Chk1 kinase at Serine 345 in HT-29 cells; assay: pCHK1 cellular assay (CHK1 p-Ser345 AlphaScreen SureFire); details: Homo sapiens, HT-29, read-out: pCHK1 Cell IC50
Method: The microplate was incubated overnight (approximately 20 hours) at 37° C. with 5% CO2 and ambient 02. Stock solutions of the test compounds were prepared in 100% DMSO (Sigma, Catalog # D2650) and serially diluted 1:3 using 100% DMSO. Compounds were additionally diluted 1:33 in culture medium, and 10 ul/well were transferred to the tissue culture plate. Following the compound addition the microplate was incubated at 37° C. for 90 minutes. […] The cells were then washed with PBS and lysed using 10 uL/well […] ® Kit lysis buffer diluted to 1× in water (PerkinElmer Catalog # TGRCHK1S50K), with mixing on an orbital shaker at 500 rpm for 20 min at RT. Lysates were frozen at −20° C. overnight.
The pCHK1 ALPHASCREEN® signal was measured using an ENVISION® plate reader (PerkinElmer). IC50 values were calculated using a four-parameter logistic curve fit using Genedata Screener software. Percent of control for each compound concentration was calculated by the following formula: 100*(Compound-Min)/(Max-Min) where “Max” is the high control, DMSO, and “Min” is the low control, 5 uM ATR inhibitor.

Sequence of ATR/ATRIP complex (Q13535 whole entry): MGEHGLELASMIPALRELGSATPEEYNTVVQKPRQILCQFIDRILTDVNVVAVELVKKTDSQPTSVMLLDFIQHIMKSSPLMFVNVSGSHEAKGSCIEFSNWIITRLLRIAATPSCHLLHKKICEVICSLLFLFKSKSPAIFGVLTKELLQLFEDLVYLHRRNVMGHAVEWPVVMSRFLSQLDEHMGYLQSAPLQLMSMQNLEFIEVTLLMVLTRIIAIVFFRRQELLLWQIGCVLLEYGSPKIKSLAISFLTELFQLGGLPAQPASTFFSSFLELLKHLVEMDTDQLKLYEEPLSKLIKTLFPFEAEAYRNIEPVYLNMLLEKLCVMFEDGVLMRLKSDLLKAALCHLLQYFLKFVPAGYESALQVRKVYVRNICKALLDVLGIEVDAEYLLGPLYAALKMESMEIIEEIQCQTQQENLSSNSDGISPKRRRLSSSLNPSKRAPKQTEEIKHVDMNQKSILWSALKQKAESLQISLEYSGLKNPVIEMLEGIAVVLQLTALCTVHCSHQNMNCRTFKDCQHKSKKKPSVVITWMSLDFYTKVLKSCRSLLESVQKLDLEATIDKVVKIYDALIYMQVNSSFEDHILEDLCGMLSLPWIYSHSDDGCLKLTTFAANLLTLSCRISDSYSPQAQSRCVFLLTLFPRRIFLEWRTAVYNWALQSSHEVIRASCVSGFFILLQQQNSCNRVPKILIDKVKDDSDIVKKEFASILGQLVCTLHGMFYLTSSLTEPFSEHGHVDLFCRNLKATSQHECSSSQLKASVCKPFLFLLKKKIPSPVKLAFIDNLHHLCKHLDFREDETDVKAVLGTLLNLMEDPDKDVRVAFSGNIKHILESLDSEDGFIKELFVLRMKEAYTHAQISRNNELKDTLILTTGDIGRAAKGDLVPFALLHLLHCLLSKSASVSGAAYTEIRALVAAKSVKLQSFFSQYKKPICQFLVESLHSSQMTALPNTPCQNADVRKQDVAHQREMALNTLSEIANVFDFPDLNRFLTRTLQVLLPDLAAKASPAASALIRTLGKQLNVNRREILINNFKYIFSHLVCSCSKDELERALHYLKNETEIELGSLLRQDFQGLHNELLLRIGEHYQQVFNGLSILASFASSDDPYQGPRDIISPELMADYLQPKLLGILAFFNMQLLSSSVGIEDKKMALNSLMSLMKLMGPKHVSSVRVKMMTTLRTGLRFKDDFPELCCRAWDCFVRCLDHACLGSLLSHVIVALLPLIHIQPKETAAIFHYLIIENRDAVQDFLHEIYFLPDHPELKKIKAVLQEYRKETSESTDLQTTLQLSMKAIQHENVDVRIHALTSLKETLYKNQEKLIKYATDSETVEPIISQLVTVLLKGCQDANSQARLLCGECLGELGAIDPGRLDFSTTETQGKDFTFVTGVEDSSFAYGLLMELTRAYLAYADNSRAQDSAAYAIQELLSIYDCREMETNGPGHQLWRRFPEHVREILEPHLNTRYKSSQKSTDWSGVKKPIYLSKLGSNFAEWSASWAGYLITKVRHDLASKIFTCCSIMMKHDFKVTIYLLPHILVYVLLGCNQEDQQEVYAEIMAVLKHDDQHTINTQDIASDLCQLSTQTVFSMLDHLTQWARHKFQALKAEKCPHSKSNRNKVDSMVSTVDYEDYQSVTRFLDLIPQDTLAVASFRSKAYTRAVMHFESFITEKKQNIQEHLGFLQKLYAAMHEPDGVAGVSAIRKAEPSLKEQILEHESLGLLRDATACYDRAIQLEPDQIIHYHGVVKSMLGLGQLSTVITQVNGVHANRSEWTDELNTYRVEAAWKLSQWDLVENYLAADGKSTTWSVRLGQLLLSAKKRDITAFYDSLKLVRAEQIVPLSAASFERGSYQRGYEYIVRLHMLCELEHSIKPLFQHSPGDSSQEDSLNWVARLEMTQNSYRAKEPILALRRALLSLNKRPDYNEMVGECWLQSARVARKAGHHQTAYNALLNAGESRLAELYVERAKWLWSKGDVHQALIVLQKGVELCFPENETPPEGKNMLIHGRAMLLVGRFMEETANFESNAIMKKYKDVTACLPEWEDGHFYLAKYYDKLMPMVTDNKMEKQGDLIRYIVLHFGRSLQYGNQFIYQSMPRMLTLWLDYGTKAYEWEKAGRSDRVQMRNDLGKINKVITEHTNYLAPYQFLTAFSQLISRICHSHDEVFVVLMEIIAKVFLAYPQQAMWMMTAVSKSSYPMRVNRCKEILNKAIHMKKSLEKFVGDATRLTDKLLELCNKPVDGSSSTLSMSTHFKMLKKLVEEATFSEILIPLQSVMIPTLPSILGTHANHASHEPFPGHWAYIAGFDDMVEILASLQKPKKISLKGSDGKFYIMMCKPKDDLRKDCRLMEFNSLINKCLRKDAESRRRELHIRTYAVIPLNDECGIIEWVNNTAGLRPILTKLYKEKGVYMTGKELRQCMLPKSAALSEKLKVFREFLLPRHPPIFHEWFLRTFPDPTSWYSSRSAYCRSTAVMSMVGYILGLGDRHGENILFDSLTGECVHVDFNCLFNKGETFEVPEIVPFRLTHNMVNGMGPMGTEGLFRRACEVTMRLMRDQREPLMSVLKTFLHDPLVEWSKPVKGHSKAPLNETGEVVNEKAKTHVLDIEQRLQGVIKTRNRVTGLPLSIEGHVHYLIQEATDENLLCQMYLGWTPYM
Sequence of ATR/ATRIP complex (Q8WXE1 whole entry partner): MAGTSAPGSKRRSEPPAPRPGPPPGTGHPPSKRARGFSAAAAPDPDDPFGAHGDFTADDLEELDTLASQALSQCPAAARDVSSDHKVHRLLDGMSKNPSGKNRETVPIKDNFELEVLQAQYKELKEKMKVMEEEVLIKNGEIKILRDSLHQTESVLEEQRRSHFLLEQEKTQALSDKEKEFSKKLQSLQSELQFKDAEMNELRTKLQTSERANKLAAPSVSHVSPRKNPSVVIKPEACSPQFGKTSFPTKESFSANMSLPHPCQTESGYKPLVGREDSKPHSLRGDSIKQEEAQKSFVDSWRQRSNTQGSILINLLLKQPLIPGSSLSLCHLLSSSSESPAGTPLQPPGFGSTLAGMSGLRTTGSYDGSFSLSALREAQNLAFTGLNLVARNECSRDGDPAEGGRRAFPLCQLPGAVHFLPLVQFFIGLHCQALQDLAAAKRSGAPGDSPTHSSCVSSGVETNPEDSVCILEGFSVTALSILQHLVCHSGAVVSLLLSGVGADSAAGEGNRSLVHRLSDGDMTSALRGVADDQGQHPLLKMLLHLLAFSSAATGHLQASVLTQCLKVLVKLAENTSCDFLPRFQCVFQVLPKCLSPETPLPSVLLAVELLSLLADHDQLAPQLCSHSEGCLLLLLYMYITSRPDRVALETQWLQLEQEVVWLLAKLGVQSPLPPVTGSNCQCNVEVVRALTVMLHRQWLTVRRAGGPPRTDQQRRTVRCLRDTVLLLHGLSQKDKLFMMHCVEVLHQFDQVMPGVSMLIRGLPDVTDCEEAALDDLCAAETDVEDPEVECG

| IC50 (ATR/ATRIP complex) [nM] | IC50 [1] [nM] | Structure (SMILES) |
| --- | --- | --- |
| 6 | 76 | C[C@@H]1COCCN1c1cc([C@]2(C)CCCS2(=O)=O)nc(-c2ccnc3[nH]ccc23)n1 [Example 30a, (S)-2-methyl-2-(6-((R)-3-methylmorpholino)-2-(1H-pyrrolo[2,3-b]pyridin-4-yl)pyrimidin-4-yl)tetrahydrothiophene 1,1-dioxide] |
| 6 | 106 | C[C@@H]1COCCN1c1cc([C@@]2(C)CCCS2(=O)=O)nc(-c2ccnc3[nH]ccc23)n1 [Example 30b, (R)-2-methyl-2-(6-((R)-3-methylmorpholino)-2-(1H-pyrrolo[2,3-b]pyridin-4-yl)pyrimidin-4-yl)tetrahydrothiophene 1,1-dioxide] |
